# Data: patent EP0379351A1, “1,4-Dihydropyridine derivatives” (SYNPHAR LABORATORIES INC., priority 1989, dated 1990)
# Read-outs that look alike come from different tables or passages of the source.
# Tests used:
# [1] = tested on: guinea pig ileal longitudinal smooth muscle; test: Calcium channel antagonist testing: inhibition of carbachol-induced, muscarinic receptor-mediated Ca2+-dependent contraction of smooth muscle; format: cell-based; settings: for relative potency compared with Nifedipine: calcium antagonist in smooth muscle, Nifedipine = 1
# From the text: The compounds of this invention of formulae I and II are suitably prepared, applying modified Hantzsch pyridine synthesis, by reacting the appropriately substituted heterocyclic alkyl acetoacetate or substituted heterocyclic mercapto alkyl acetoacetate with a substituted benzaldehyde derivative and methyl-β-aminocrotonate in isopropanol. The compounds of formula III are suitably prepared by reacting diketene or an alkyldiketene with an appropriately substituted heterocyclic ω-alkanol or substituted heterocyclic mercapto ω-alkanol in benzene. The related sulfoxy and sulfonyl derivatives of formula VI may be prepared by oxidizing the relative mercapto derivative with m-chloroperbenzoic acid in CH₂Cl₂ followed, if required, by further oxidation with potassium permanganate in acetic acid. All the products in this invention are characterized by their respective nmr, ir spectra and their elemental analysis. The relative purity has been determined by HPLC. Calcium antagonistic activity of the compounds was determined at the concentration required to produce 50% inhibition of the muscarinic receptor-mediated Ca²⁺-dependent contraction of guinea pig ileal longitudinal smooth muscle assay.
# Calcium channel antagonist activity was determined as the concentration required to produce 50% inhibition of the muscarinic receptor-mediated Ca⁺²-dependent contraction of guinea pig ileal longitudinal smooth muscle assay (C. Triggle, V. Swamy and D. Triggle, Can. J. Physiol. Pharmacol., 1979, 57, 804). Male albino guinea pigs (body weight 300 - 450g) were sacrificed by decapitation. The intestine was removed above the ileocaecal junction. Longitudinal smooth muscle segments of 2cm length were mounted under a resting tension of 300 - 400 mg. The segments were maintained at 37°C in a 10mL jacketed organ bath containing oxygenated (100% O₂) physiological saline solution of the following composition (mM): NaCl: 137; CaCl₂: 2.6; KCl: 5.9; MgCl₂: 1.2; glucose: 11.9; buffered by Hepes-NaOH to pH 7.4. The muscles were equilibrated for 1h with a solution change every 15 min. Two successive control contractions were elicited at 15 min. intervals with 5x10⁻⁷M carbachol. The isometric contractions were recorded with a force displacement transducer (FT 03C) on a GRASS* physiograph. The means of the […] contractile responses was taken as the 100% value for the tonic (slow) component of the response. The muscle was washed with Hepes saline solution and was allowed to re-equilibrate. The calcium antagonist (test compound) was added ten min before the dose-response for carbachol was determined. The drug-induced inhibition of contraction was expressed as percent of control. The ID₅₀ values were graphically determined from the concentration-response curves, in triplicate.
# [2] = tested on: angiotensin; test: In-vitro angiotensin inhibitory activity; format: biochemical; settings: for angiotensin inhibitory activity: general pharmacological screening, result in words
# [3] = tested on: heart muscle; settings: in the concentration of its smooth muscle calcium channel blocking effectiveness; cited from earlier work
# [4] = tested on: heart muscle; test: Ionotropic effect and heart rate on heart muscle; format: cell-based; settings: for positive ionotropic effect on the heart muscle: same concentration as smooth muscle relaxant (IC50 concentration; 3.25 x 10⁻⁹M for Compound 11); for heart contractile force / heart rate: at the concentrations which normally exhibit the Ca-blocking effect in smooth muscles
# [5] = tested on: LTD₄; test: General pharmacological screening: LTD4 antagonistic activity; settings: result in words
# [6] = General pharmacological screening: anti-ulcer stressic activity; settings: result in words
# [7] = tested on: SHR Rat; test: Blood pressure and heart rate in SHR Rat; format: in vivo; settings: 0.2mg/Kg
# [8] = General pharmacological screening: anti-inflammatory activity; settings: result in words
# [9] = Cavia porcellus, exponent (x 10⁻⁹), carbachol 5x10⁻⁷M, tonic component, triplicate, read-out: calcium channel antagonist act., inhib. act. on contractile Response to CD ID₅₀
# [10] = Cavia porcellus, read-out: IC₅₀ as a calcium antagonist in smooth muscle
smiles,measurement,setting,value
"COC(=O)C1=C(C)NC(C)=C(C(=O)OCCCCCCCc2nc(C)cs2)C1c1cccc(Cl)c1 (centres unmarked) [Compound 15, 3-[7-(4-methylthiazol-2-yl)heptyloxycarbonyl]-5-methoxycarbonyl-2,6-dimethyl-4-(3-chlorophenyl)-1,4-dihydropyridine]",IC50,[1]; [9],6.25 nM
same,Percent Inhibition,[2]; Concentration 0.1 µg/ml,64%
"CCOC(=O)C1=C(C)NC(C)=C(C(=O)OC)C1c1cccc(Cl)c1Cl (centres unmarked) [Felodipine, 3-ethoxycarbonyl-5-methoxycarbonyl-4-(2,3-dichlorophenyl)-2,6-dimethyl-1,4-dihydropyridine]",effect on the heart,[3],no effect on the heart
COC(=O)C1=C(C)NC(C)=C(C(=O)OCCCCCCS(=O)(=O)c2nc(C)cs2)C1c1cccc([N+](=O)[O-])c1 (centres unmarked) [3-[6-(4-methylthiazol-2-yl)sulfonylhexyloxycarbonyl]-5-metho],relative potency compared with Nifedipine,[1],2.5
same,positive ionotropic effect on the heart muscle,[4],about 22%
"COC(=O)C1=C(C)NC(C)=C(C(=O)OCCCCCCn2nc(C)cc2C)C1c1cccc([N+](=O)[O-])c1 (centres unmarked) [Compound 5, 3-[6-(3,5-dimethylpyrazol-1-yl)hexyloxycarbonyl]-5-methoxycarbonyl-2,6-dimethyl-4-(3-nitrophenyl)-1,4-dihydropyridine]",IC50,[1]; [9],6.24 nM
same,Percent Inhibition,[2]; Concentration 0.01 µg/ml,95%
same,Percent Inhibition,[2]; concentration of 0.001 µg,58%
COC(=O)C1=C(C)NC(C)=C(C(=O)OCCCCCCS(=O)(=O)c2nc(C)cs2)C1c1cccc([N+](=O)[O-])c1 (centres unmarked) [listing 1 of 2 here],heart contractile force,[4],increase the heart contractile force
same,heart rate,[4],without changing the heart rate
COC(=O)C1=C(C)NC(C)=C(C(=O)OCCCCCCCc2nc(C)cs2)C1c1cccc(Cl)c1 (centres unmarked),angiotensin inhibitory activity,[2],very strong
same,LTD₄ antagonistic activity,[5],very strong
same,anti-ulcer stressic activity,[6],very strong
"C[C@H](CS)C(=O)N1CCC[C@H]1C(=O)O [Captopril, reference compound]",Percent Inhibition,[2]; Concentration 0.05 µg/ml,69%
"COC(=O)C1=C(C)NC(C)=C(C(=O)OCCCCCCCc2nc(C)cs2)C1c1cccc(Cl)c1Cl (centres unmarked) [Compound 17, 3-[7-(4-methylthiazol-2-yl)heptyloxycarbonyl]-5-methoxycarbonyl-2,6-dimethyl-4-(2,3-dichlorophenyl)-1,4-dihydropyridine]",IC50,"[1]; Cavia porcellus, exponent printed in neighbouring spread cell (x 10⁻⁸), carbachol 5x10⁻⁷M, tonic component, triplicate, read-out: calcium channel antagonist act., inhib. act. on contractile Response to CD ID₅₀",48.1 nM
"COC(=O)C1=C(C)NC(C)=C(C(=O)OCCCCCCCc2nc(C)cs2)C1c1cccc([N+](=O)[O-])c1 (centres unmarked) [Compound 11, 3-[7-(4-methylthiazol-2-yl)heptyloxycarbonyl]-5-methoxycarbonyl-2,6-dimethyl-4-(3-nitrophenyl)-1,4-dihydropyridine]",IC50,[1]; [9],3.25 nM
same,positive ionotropic effect on the heart muscle,[4],about 12%
same,drop in blood pressure,[7],19%
same,heart rate,[7],without changing the heart rate
same,period of drop in blood pressure,[7],9 h
"COC(=O)C1=C(C)NC(C)=C(C(=O)OCCCCCCSc2nc(C)cs2)C1c1cccc([N+](=O)[O-])c1 (centres unmarked) [Compound 18, 3-[6-(4-methylthiazol-2-yl)thiohexyloxycarbonyl]-5-methoxycarbonyl-2,6-dimethyl-4-(3-nitrophenyl)-1,4-dihydropyridine]",IC50,[1]; [9],5.48 nM
"COC(=O)C1=C(C)NC(C)=C(C(=O)OCCCCCCCc2cc(C)no2)C1c1cccc([N+](=O)[O-])c1 (centres unmarked) [Compound 1, 3-[7-(3-methylisoxazol-5-yl)heptyloxycarbonyl]-5-methoxycarbonyl-2,6-dimethyl-4-(3-nitrophenyl)-1,4-dihydropyridine]",IC50,[1]; [9],3.84 nM
same,Percent Inhibition,[2]; Concentration 0.01 µg/ml,93%
same,Percent Inhibition,[2]; concentration of 0.0025 µg,60%
COC(=O)C1=C(C)NC(C)=C(C(=O)OCCCCCCS(=O)(=O)c2nc(C)cs2)C1c1cccc([N+](=O)[O-])c1 (centres unmarked) [listing 2 of 2 here],IC50,[1]; [10],5.57 nM
"COC(=O)C1=C(C)NC(C)=C(C(=O)OCCCCCCS(=O)(=O)c2nc(C)cs2)C1c1cccc([N+](=O)[O-])c1 (centres unmarked) [Compound 19, 3-[6-(4-methylthiazol-2-yl)sulfonylhexyloxycarbonyl]-5-methoxycarbonyl-2,6-dimethyl-4-(3-nitrophenyl)-1,4-dihydropyridine]",IC50,[1]; [9],5.81 nM
same,positive ionotropic effect on the heart muscle,[4],25%
"COC(=O)C1=C(C)NC(C)=C(C(=O)OCCCCCCCc2nc(C)cs2)C1c1cccc(C(F)(F)F)c1 (centres unmarked) [Compound 13, 3-[7-(4-methylthiazol-2-yl)heptyloxycarbonyl]-5-methoxycarbonyl-2,6-dimethyl-4-(3-trifluoromethylphenyl)-1,4-dihydropyridine]",Percent Inhibition,[2]; Concentration 0.1 µg/ml,80%
COC(=O)C1=C(C)NC(C)=C(C(=O)OCCCCCCCc2nc(C)cs2)C1c1cccc(C(F)(F)F)c1 (centres unmarked),anti-inflammatory activity,[8],very strong
COC(=O)C1=C(C)NC(C)=C(C(=O)OCCCCCCCc2cc(C)no2)C1c1cccc([N+](=O)[O-])c1 (centres unmarked),angiotensin inhibitory activity,[2],very strong
same,LTD₄ antagonistic activity,[5],very strong
same,anti-ulcer stressic activity,[6],very strong
COC(=O)C1=C(C)NC(C)=C(C(=O)OCCCCCCn2nc(C)cc2C)C1c1cccc([N+](=O)[O-])c1 (centres unmarked),anti-inflammatory activity,[8],very strong
COC(=O)C1=C(C)NC(C)=C(C(=O)OCCCCCCCc2nc(C)cs2)C1c1cccc([N+](=O)[O-])c1 (centres unmarked),IC50,[1]; [10],3.25 ± 0.33 nM
same,relative potency compared with Nifedipine,[1],4.3
same,heart contractile force,[4],increase the heart contractile force
same,heart rate,[4],without changing the heart rate
"COC(=O)C1=C(C)NC(C)=C(C(=O)OCCCCCCCc2cc(C)no2)C1c1cccc(C(F)(F)F)c1 (centres unmarked) [Compound 3, 3-[7-(3-mehylisoxazol-5-yl)heptyloxycarbonyl]-5-methoxycarbonyl-2,6-dimethyl-4-(3-trifluoromethylphenyl)-1,4-dihydropyridine]",IC50,"[1]; exponent (x 10⁻⁹), carbachol 5x10⁻⁷M, tonic component, triplicate, read-out: calcium channel antagonist act., inhib. act. on contractile Response to CD ID₅₀",5.13 nM
